Patent US20160242416A1, “FUNGICIDAL ISOXAZOLINE CARBINOLS” (E I DU PONT DE NEMOURS AND COMPANY, priority 2015, published 2016)

Columns and labels:
[1] = test system: Puccinia recondita f sp. tritici; assay: Test F: wheat leaf rust, preventive spray on wheat seedlings; details: 100 = 100% disease control; for Test F disease control rating: 10 ppm test solution, 0 = no control relative to controls; for Test F rating (% disease control): 10 ppm, wheat leaf rust, 0 = no control
[2] = test system: Erysiphe graminis f sp. tritici; assay: Test G: wheat powdery mildew, preventive spray on wheat seedlings; details: 100 = 100% disease control; for Test G disease control rating: 10 ppm test solution, 0 = no control relative to controls; for Test G rating (% disease control): 10 ppm, wheat powdery mildew, 0 = no control
Zymoseptoria tritici = assay: Test E: wheat leaf blotch, preventive spray on wheat seedlings; details: 100 = 100% disease control; for Test E disease control rating: 10 ppm test solution, 0 = no control relative to controls; for Test E rating (% disease control): 10 ppm, wheat leaf blotch, 0 = no control
Stagonospora nodorum = assay: Test D: wheat glume blotch, preventive spray on wheat seedlings; details: 100 = 100% disease control; for Test D disease control rating: 10 ppm test solution, 0 = no control relative to controls; for Test D rating (% disease control): 10 ppm, wheat glume blotch, 0 = no control
Description: General protocol for preparing test solutions for Tests A-G: the test compounds were first dissolved in acetone in an amount equal to 3% of the final volume and then suspended at the desired concentration (in ppm) in acetone and purified water (50/50 mix by volume) containing 250 ppm of the surfactant PEG400 (polyhydric alcohol esters). The resulting test suspensions were then used in Tests A-G. Compounds were sprayed at a concentration of 50 ppm (*) or 10 ppm to the point of run-off on the test plants, the equivalent of a rate of 200 g/ha or 40 g/ha, respectively.
The test solution was sprayed to the point of run-off on wheat seedlings. The following day the seedlings were inoculated with a spore suspension of Stagonospora nodorum (also known as Septoria nodorum; the causal agent of wheat glume blotch) and incubated in a saturated atmosphere at 20° C. for 48 h, and then moved to a growth chamber at 20° C. for 6 days, after which time visual disease ratings were made.
Compounds with an asterisks (*) were applied at a concentration of 50 ppm, otherwise test solutions were applied at 10 ppm.

What does the source list for `CC(C)(C)C(O)(Cn1cncn1)C1=NOC(COCc2ccc(Cl)cc2)C1` (single isomer, unassigned) [Compound 264]?
Test F disease control rating [1]: 0%; Test G disease control rating [2]: 99%; Test E disease control rating (Zymoseptoria tritici): 0%; Test D disease control rating (Stagonospora nodorum): 0%

Which results are given for `CC(C)(C)C(O)(Cn1cncn1)C1=NOC(CCOc2ccc(Cl)cc2)C1` (single isomer, unassigned) [Compound 208]?
Test F rating (% disease control) [1]: 100%; Test G rating (% disease control) [2]: 100%; Test E rating (% disease control) (Zymoseptoria tritici): 74%; Test D rating (% disease control) (Stagonospora nodorum): 100%

Which results are given for `CCC(C)(C)C(O)(Cn1cncn1)C1=NOC(COc2ccc(F)cc2)C1` (single isomer, unassigned) [Compound 249]?
Test F disease control rating [1]: 100%; Test G disease control rating [2]: 100%; Test E disease control rating (Zymoseptoria tritici): 0%; Test D disease control rating (Stagonospora nodorum): 100%

Which results are given for `COc1ccc(OCC2CC(C(O)(Cn3cncn3)C(C)(C)C)=NO2)cc1` (single isomer, unassigned) [Compound 259]?
Test F disease control rating [1]: 92%; Test G disease control rating [2]: 99%; Test E disease control rating (Zymoseptoria tritici): 0%; Test D disease control rating (Stagonospora nodorum): 99%

Which “Test F rating (% disease control)” value [1] does the source give for `CC(C)(C)C(O)(Cn1cncn1)C1=NOC(CCOc2ccc(Cl)cc2)C1` (single isomer, unassigned) [Compound 209] here?
Its value is 100%.

What about the “Test G rating (% disease control)” value [2] of the same compound?
The value was 100%.

What about the “Test E rating (% disease control)” value (Zymoseptoria tritici) of the same compound?
The value was 11%.

And the “Test D rating (% disease control)” value (Stagonospora nodorum)?
Its value is 99%.

Which results are given for `OC(Cn1cncn1)(C1=NOC(COc2ccc(Cl)cc2)C1)C1(Cl)CC1` (single isomer, unassigned) [Compound 252]?
Test F disease control rating [1]: 100%; Test G disease control rating [2]: 89%; Test E disease control rating (Zymoseptoria tritici): 2%; Test D disease control rating (Stagonospora nodorum): 78%

How did the “Test F disease control rating” value [1] turn out when `CC(C)(C)C(O)(Cn1cncn1)C1=NOC(CCOc2ccc(F)cc2)C1` (single isomer, unassigned) [Compound 270] was run?
Its value is 100%.

What about the “Test G disease control rating” value [2] of the same compound?
The value was 100%.

What about the “Test E disease control rating” value (Zymoseptoria tritici) of the same compound?
The value was 75%.

And the “Test D disease control rating” value (Stagonospora nodorum)?
Its value is 99%.

With `CC(C)(C)C(O)(Cn1cncn1)C1=NOC(COc2ccc(Cl)c(Cl)c2)C1` (single isomer, unassigned) [Compound 258] as the compound, how does the “Test F disease control rating” value [1] read?
The value was 100%.

And the “Test G disease control rating” value [2]?
The value was 100%.

And the “Test E disease control rating” value (Zymoseptoria tritici)?
Its value is 0%.

And the “Test D disease control rating” value (Stagonospora nodorum)?
The value was 100%.

What does the source list for `CC1(C(O)(Cn2cncn2)C2=NOC(COc3ccc(Br)cc3)C2)CC1` (single isomer, unassigned) [Compound 238]?
Test F disease control rating [1]: 100%; Test G disease control rating [2]: 99%; Test E disease control rating (Zymoseptoria tritici): 0%; Test D disease control rating (Stagonospora nodorum): 99%

How did the “Test F disease control rating” value [1] turn out when `COc1ccc(OCC2CC(C(O)(Cn3cncn3)C(C)(C)C)=NO2)cc1` (single isomer, unassigned) [Compound 260] was run?
Its value is 98%.

What about the “Test G disease control rating” value [2] of the same compound?
The value was 100%.

And the “Test E disease control rating” value (Zymoseptoria tritici)?
The value was 1%.

What about the “Test D disease control rating” value (Stagonospora nodorum) of the same compound?
The value was 99%.

Which “Test F disease control rating” value [1] does the source give for `CC(C)(C)C(O)(Cn1cncn1)C1=NOC(CCOc2ccc(F)cc2)C1` (single isomer, unassigned) [Compound 269] here?
The value was 100%.

And the “Test G disease control rating” value [2]?
Its value is 100%.

What about the “Test E disease control rating” value (Zymoseptoria tritici) of the same compound?
Its value is 73%.

What about the “Test D disease control rating” value (Stagonospora nodorum) of the same compound?
Its value is 99%.

For `CC(C)(C)C(O)(Cn1cncn1)C1=NOC(COCc2ccc(Cl)cc2)C1` (single isomer, unassigned) [Compound 263], which “Test F disease control rating” value [1] is on record?
The value was 87%.

And the “Test G disease control rating” value [2]?
Its value is 99%.

What about the “Test E disease control rating” value (Zymoseptoria tritici) of the same compound?
Its value is 0%.

And the “Test D disease control rating” value (Stagonospora nodorum)?
The value was 99%.

How did the “Test F disease control rating” value [1] turn out when `CC(C)(C)C(O)(Cn1cncn1)C1=NOC(COc2ccc(-c3ccccc3)cc2)C1` (single isomer, unassigned) [Compound 228] was run?
Its value is 86%.

What about the “Test G disease control rating” value [2] of the same compound?
Its value is 99%.

And the “Test E disease control rating” value (Zymoseptoria tritici)?
The value was 12%.

What about the “Test D disease control rating” value (Stagonospora nodorum) of the same compound?
The value was 0%.

How did the “Test F disease control rating” value [1] turn out when `CC(C)(C)C(O)(Cn1cncn1)C1=NOC(COc2ccc(Cl)cc2)C1` (single isomer, unassigned) [Compound 242] was run?
Its value is 99%.

What about the “Test G disease control rating” value [2] of the same compound?
Its value is 68%.

And the “Test E disease control rating” value (Zymoseptoria tritici)?
Its value is 0%.

What about the “Test D disease control rating” value (Stagonospora nodorum) of the same compound?
The value was 0%.

What does the source list for `CCC(C)(C)C(O)(Cn1cncn1)C1=NOC(COc2ccc(C(F)(F)F)cc2)C1` (single isomer, unassigned) [Compound 261]?
Test F disease control rating [1]: 100%; Test G disease control rating [2]: 100%; Test E disease control rating (Zymoseptoria tritici): 92%; Test D disease control rating (Stagonospora nodorum): 100%

How did the “Test F rating (% disease control)” value [1] turn out when `OC(Cn1cncn1)(C1=NOC(Cc2ccc(-c3ccccc3)cc2)C1)c1ccc(Cl)cc1` (single isomer, unassigned) [Compound 204] was run?
Its value is 100%.

What about the “Test G rating (% disease control)” value [2] of the same compound?
Its value is 99%.

What about the “Test E rating (% disease control)” value (Zymoseptoria tritici) of the same compound?
The value was 0%.

And the “Test D rating (% disease control)” value (Stagonospora nodorum)?
Its value is 77%.

With `CC1(C(O)(Cn2cncn2)C2=NOC(COc3ccc(Br)cc3)C2)CC1` (single isomer, unassigned) [Compound 239] as the compound, how does the “Test F disease control rating” value [1] read?
The value was 100%.

And the “Test G disease control rating” value [2]?
Its value is 99%.

And the “Test E disease control rating” value (Zymoseptoria tritici)?
The value was 0%.

And the “Test D disease control rating” value (Stagonospora nodorum)?
Its value is 98%.

Which “Test F rating (% disease control)” value [1] does the source give for `OC(Cn1cncn1)(C1=NOC(Cc2ccc(-c3ccccc3)cc2)C1)c1ccc(Cl)cc1` (single isomer, unassigned) [Compound 205] here?
The value was 68%.

And the “Test G rating (% disease control)” value [2]?
Its value is 98%.

And the “Test E rating (% disease control)” value (Zymoseptoria tritici)?
The value was 6%.

And the “Test D rating (% disease control)” value (Stagonospora nodorum)?
Its value is 10%.

How did the “Test F disease control rating” value [1] turn out when `CC(C)(C)CC(O)(Cn1cncn1)C1=NOC(COc2ccc(F)cc2)C1` (single isomer, unassigned) [Compound 245] was run?
The value was 98%.

What about the “Test G disease control rating” value [2] of the same compound?
Its value is 98%.

What about the “Test E disease control rating” value (Zymoseptoria tritici) of the same compound?
The value was 2%.

And the “Test D disease control rating” value (Stagonospora nodorum)?
The value was 51%.

`OC(Cn1cncn1)(Cn1cncn1)C1=NOC(COc2ccc(Cl)cc2)C1` (centres unmarked) [Compound 248] was tested. Which “Test F disease control rating” value [1] did it give?
The value was 100%.

And the “Test G disease control rating” value [2]?
The value was 98%.

And the “Test E disease control rating” value (Zymoseptoria tritici)?
The value was 0%.

And the “Test D disease control rating” value (Stagonospora nodorum)?
Its value is 0%.

How did the “Test F disease control rating” value [1] turn out when `OC(Cn1cncn1)(C1=NOC(COc2ccc(Cl)cc2)C1)C1(Cl)CC1` (single isomer, unassigned) [Compound 251] was run?
Its value is 100%.

And the “Test G disease control rating” value [2]?
Its value is 100%.

And the “Test E disease control rating” value (Zymoseptoria tritici)?
Its value is 3%.

And the “Test D disease control rating” value (Stagonospora nodorum)?
Its value is 100%.

For `OC(COc1ccc(Cl)cc1)(Cn1cncn1)C1=NOC(c2ccc(Cl)cc2)C1` (centres unmarked) [Compound 273], which “Test F disease control rating” value [1] is on record?
The value was 98%.

And the “Test G disease control rating” value [2]?
The value was 69%.

And the “Test E disease control rating” value (Zymoseptoria tritici)?
The value was 2%.

And the “Test D disease control rating” value (Stagonospora nodorum)?
The value was 11%.

With `CC(C)CC(O)(Cn1cncn1)C1=NOC(COc2ccc(Cl)cc2)C1` (single isomer, unassigned) [Compound 268] as the compound, how does the “Test F disease control rating” value [1] read?
Its value is 100%.

And the “Test G disease control rating” value [2]?
Its value is 95%.

And the “Test E disease control rating” value (Zymoseptoria tritici)?
Its value is 0%.

What about the “Test D disease control rating” value (Stagonospora nodorum) of the same compound?
Its value is 82%.

For `Cc1ccc(OCC2CC(C(O)(Cn3cncn3)C(C)(C)C)=NO2)cc1` (single isomer, unassigned) [Compound 235], which “Test F disease control rating” value [1] is on record?
Its value is 87%.

What about the “Test G disease control rating” value [2] of the same compound?
Its value is 99%.

And the “Test E disease control rating” value (Zymoseptoria tritici)?
Its value is 8%.

Which results are given for `CC(C)(C)CC(O)(Cn1cncn1)C1=NOC(COc2ccc(C(F)(F)F)cc2)C1` (single isomer, unassigned) [Compound 241]?
Test F disease control rating [1]: 99%; Test G disease control rating [2]: 90%; Test E disease control rating (Zymoseptoria tritici): 0%

How did the “Test F disease control rating” value [1] turn out when `CC1(C(O)(Cn2cncn2)C2=NOC(COc3ccc(Cl)cc3)C2)CC1` (single isomer, unassigned) [Compound 224] was run?
Its value is 100%.

What about the “Test G disease control rating” value [2] of the same compound?
Its value is 100%.

What about the “Test E disease control rating” value (Zymoseptoria tritici) of the same compound?
The value was 30%.

Which “Test F disease control rating” value [1] does the source give for `CC(C)(C)CC(O)(Cn1cncn1)C1=NOC(COc2ccc(C(F)(F)F)cc2)C1` (single isomer, unassigned) [Compound 240] here?
Its value is 100%.

And the “Test G disease control rating” value [2]?
The value was 99%.

And the “Test E disease control rating” value (Zymoseptoria tritici)?
Its value is 0%.

Which results are given for `CC1(C(O)(Cn2cncn2)C2=NOC(COc3ccc(Cl)cc3)C2)CC1` (single isomer, unassigned) [Compound 225]?
Test F disease control rating [1]: 100%; Test G disease control rating [2]: 99%; Test E disease control rating (Zymoseptoria tritici): 0%

Which “Test F disease control rating” value [1] does the source give for `Cc1ccc(OCC2CC(C(O)(Cn3cncn3)C(C)(C)C)=NO2)cc1` (single isomer, unassigned) [Compound 234] here?
The value was 0%.

And the “Test G disease control rating” value [2]?
The value was 99%.

And the “Test E disease control rating” value (Zymoseptoria tritici)?
Its value is 0%.
